Patent US5852008A, “Heteroatom substituted benzoyl derivatives that enhance synaptic response mediated by receptors” (The Regents of the University of California, priority 1995, dated 1998)
“Also recorded” adds a separate entry of the source.

Legend:
AMPA receptors = assay: Field EPSP in rat hippocampal slices (field CA1): amplitude and area of AMPA receptor-mediated synaptic responses; type: cell-based, rat (Sprague-Dawley)
Protocol: The physiological effects of invention compounds can be tested in vitro with slices of rat hippocampus as follows. Excitatory responses (field EPSPs) are measured in hippocampal slices which are maintained in a recording chamber continuously perfused with artificial cerebrospinal fluid (ACSF).
To conduct these tests, the hippocampus was removed from anesthetized, 2 month old Sprague-Dawley rats and in vitro slices (400 micrometers thick) were prepared and maintained in an interface chamber at 35° C. using conventional techniques [see, for example, Dunwiddie and Lynch, J. Physiol. Vol. 276: 353-367 (1978)]. The chamber was constantly perfused at 0.5 ml/min with ACSF containing (in mM): NaCl 124, KCl 3, KH2 PO4 1.25, MgSO4 2.5, CaCl2 3.4, NaHCO3 26, glucose 10 and L-ascorbate 2. A bipolar nichrome stimulating electrode was positioned in the dendritic layer (stratum radiatum) of the hippocampal subfield CA1 close to the border of subfield CA3.
Current pulses (0.1 msec) through the stimulating electrode activate a population of the Schaffer-commissural (SC) fibers which arise from neurons in the subdivision CA3 and terminate in synapses on the dendrites of CA1 neurons. Activation of these synapses causes them to release the transmitter glutamate. Glutamate binds to the postsynaptic AMPA receptors which then transiently open an associated ion channel and permit a sodium current to enter the postsynaptic cell. This current results in a voltage in the extracellular space (the field excitatory postsynaptic potential or field "EPSP") which is recorded by a high impedance recording electrode positioned in the middle of the stratum radiatum of CA1.
For the experiments summarized in FIG. 1, the intensity of the stimulation current was adjusted to produce half-maximal EPSPs (typically about 1.5-2.0 mV). Paired stimulation pulses were given every 40 sec with an interpulse interval of 200 msec (see below). The field EPSPs of the second response were digitized and analyzed to determine amplitude, half-width, and response area. If the responses were stable for 15-30 minutes (baseline), test compounds were added to the perfusion lines for a period of about 15 minutes. The perfusion was then changed back to regular ACSF.
Paired-pulse stimulation was used since stimulation of the SC fibers, in part, activates interneurons which generate an inhibitory postsynaptic potential (IPSP) in the pyramidal cells of CA1. This feed forward IPSP typically sets in after the EPSP reaches its peak. It accelerates the repolarization and shortens the decay phase of the EPSP, and thus could partially mask the effects of the test compounds. One of the relevant features of the feed-forward IPSP is that it can not be reactivated for several hundred milliseconds following a stimulation pulse. This phenomenon can be employed to advantage to eliminate IPSP by delivering paired pulses separated by 200 milliseconds and using the second ("primed") response for data analysis.
These effects are mirrored in the field EPSP, as reported in the literature [see, for example, Staubli et al., Psychobiology supra; Xiao et al., Hippocampus supra; Staubli et al., Hippocampus Vol. 2: 49-58 (1992)].
The variables set forth in the table refer to the following generic structure: [drawing 33]

AMPA receptor = assay: Monosynaptic EPSP responses in the hippocampus of anesthetized rats after intraperitoneal injection; type: in vivo, rat (male Sprague-Dawley); conditions: i.p. 120-180 mg/kg
Protocol: The time constant for the decay of the EPSP is a measure for the duration of the response.
In these experiments, male Sprague-Dawley rats were anesthetized with urethane (1.7 g/kg) and body temperature was maintained at 37° C. with the use of a heat lamp. A stimulation electrode (two twisted stainless steel wires, 150 μm diameter, insulated with teflon) was placed stereotaxically in the trajectory of the Schaffer collateral (SC) pathway from CA3 to CA1 of the hippocampus (coordinates relative to Bregma: 3.5 mm P., 3.5 mm L., and 3.0-3.7 mm V). A recording electrode (stainless steel, 150 μm diameter, insulated with teflon) was placed in the ipsilateral CA1 field (coordinates relative to Bregma: 3.8 mm P., 2.9 mm L., and 2.2-2.8 mm V.), 100-200 μm ventral to the electrophysiologically-identified CA1 stratum pyramidale (i.e., in the stratum radiatum).
Decay time constants were determined by single exponential fits to the decay phase of the synaptic response and expressed as a percent of the value obtained during the pre-injection control period.

[1] = test system: long-term potentiation in CA1 field of hippocampal slices; assay: Promotion of long-term potentiation (LTP) in CA1 field of hippocampal slices; type: cell-based, rat; conditions: 1.5 mM, theta burst stimulation; vs absence of drug, p<0.02; FIG. 3
Protocol: Long-term potentiation (LTP; a stable increase in the EPSP size of single responses after brief periods of high frequency stimulation) was elicited in the CA1 field of hippocampal slices in the absence (see FIG. 3, stippled bars, N=6) and in the presence of 1.5 mM of Invention Compound I (see FIG. 3, striped bars, N=5). In the latter case, the amount of potentiation was determined after washing out the test compound and comparing the response size with that before test compound infusion. Data presented in FIG. 3 show the percent increase in the EPSP amplitude (mean and S.D.) at 40, 60, and 90 minutes after LTP induction.
For these studies, field EPSPs in slices of hippocampus were elicited by single stimulation pulses and recorded by extracellular electrodes as described in Example II. After collecting responses every 40 seconds for 20-30 minutes to establish a baseline, LTP was induced with ten short bursts of pulses delivered to the CA3 axons; each burst consisted of four pulses separated by 10 milliseconds; the interval between the bursts was 200 milliseconds. This pattern of axon stimulation mimics a discharge rhythm observed in the hippocampus of animals engaged in learning and is referred to as the "theta burst stimulation paradigm" [see, for example, Larson and Lynch in Science Vol. 232: 985-988 (1986)]. […]

[2] = test system: hippocampal electroencephalogram; assay: Hippocampal electroencephalogram monitoring for electrographic seizures after i.p. injection; type: in vivo, rat (male Sprague-Dawley); conditions: i.p. 120-180 mg/kg
[3] = peripheral administration in humans; cited from earlier work

Row | Structure (SMILES) | increase in area of the field EPSP (AMPA receptors; 100 μM, mean and S.D. of 4 experiments) | increase in response area relative to aniracetam (AMPA receptors; 750 μM) | onset and reversibility of effect (AMPA receptors; 750 μM, 15 min infusion, washout, FIG. 1) | effect on amplitude, duration (half-width) and area of synaptic response (AMPA receptors; 750 μM, 15 min infusion, FIG. 1) | EC50 (AMPA receptors; percent increase in field EPSP amplitude, log dose/response, maximal response of 85% increase assumed where solubility was limiting, read-out: EC50 (field EPSP amplitude)) | time to reversal of the increased response duration (AMPA receptor) | effect on duration / decay of synaptic responses (AMPA receptor; anesthetized rats, FIG. 4) | blood-brain barrier passage (AMPA receptor; inferred from EPSP effect) | degree of stable long-term potentiation [1] | electrographic seizures [2] | conversion to anisoyl-GABA [3]
1 | O=C(c1ccc2c(c1)OCCO2)N1CC=CCC1 [Invention Compound I] | 46±16% | nine | the effects occur quickly after infusion (horizontal bar) and reverse upon washout; also recorded: rapid onset of action and was fully reversible upon washout | increases the amplitude and duration (measured as half-width) of synaptic responses; also recorded: much larger effect than does aniracetam at twice the concentration; also recorded: the magnitude of the effects was much greater | 500 µM | 60 to 120 min | slows the decay rate of synaptic responses; also recorded: rapid increase in the duration of the synaptic response; also recorded: somewhat larger for the second (primed) response; also recorded: reversibly prolong synaptic responses in the hippocampus | sufficient amounts of the test compound cross the blood-brain barrier | increases the magnitude of long-term potentiation; also recorded: nearly twice as large; also recorded: facilitate induction of maximal long-term potentiation in vitro | in no case did injections of Invention Compound I produce electrographic seizures | 
2 | COc1ccc(C(=O)N2CCCC2=O)cc1 [aniracetam, N-anisoyl-2-pyrrolidinone] |  |  |  |  |  |  |  |  |  |  | about 80%
